1 compound from ChEMBL document CHEMBL3526083, “Prediction of relative in vivo metabolite exposure from in vitro data using two model drugs: dextromethorphan and omeprazole” (Drug Metab Dispos, 2012) can be followed below.

For data set [1], the target named is T1, UDP-glucuronosyltransferase 1A1 (Homo sapiens, UniProt P22309).
T1 sequence (P22309 whole entry): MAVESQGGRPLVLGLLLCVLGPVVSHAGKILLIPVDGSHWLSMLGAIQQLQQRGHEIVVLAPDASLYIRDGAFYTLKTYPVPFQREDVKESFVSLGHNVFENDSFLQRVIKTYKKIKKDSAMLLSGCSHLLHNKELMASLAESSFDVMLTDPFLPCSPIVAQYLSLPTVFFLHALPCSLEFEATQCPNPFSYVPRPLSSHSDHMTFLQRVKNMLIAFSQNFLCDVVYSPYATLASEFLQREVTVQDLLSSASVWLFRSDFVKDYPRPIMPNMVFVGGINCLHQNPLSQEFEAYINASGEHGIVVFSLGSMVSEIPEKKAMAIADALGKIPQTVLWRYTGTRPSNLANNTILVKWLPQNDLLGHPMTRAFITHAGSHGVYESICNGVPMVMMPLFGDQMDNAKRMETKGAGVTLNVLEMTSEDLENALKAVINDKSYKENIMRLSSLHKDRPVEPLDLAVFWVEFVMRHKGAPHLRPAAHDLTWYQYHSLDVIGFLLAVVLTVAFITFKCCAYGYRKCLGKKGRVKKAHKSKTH
The data set is described as follows: Drug metabolism assessed as recombinat UGT1A1 (unknown origin) -mediated dextrophan-O-glucuronide formation. The class given is ADME.

Data set [2] addresses T2, UDP-glucuronosyltransferase 1A9 (Homo sapiens, UniProt O60656).
T2 sequence (O60656 whole entry): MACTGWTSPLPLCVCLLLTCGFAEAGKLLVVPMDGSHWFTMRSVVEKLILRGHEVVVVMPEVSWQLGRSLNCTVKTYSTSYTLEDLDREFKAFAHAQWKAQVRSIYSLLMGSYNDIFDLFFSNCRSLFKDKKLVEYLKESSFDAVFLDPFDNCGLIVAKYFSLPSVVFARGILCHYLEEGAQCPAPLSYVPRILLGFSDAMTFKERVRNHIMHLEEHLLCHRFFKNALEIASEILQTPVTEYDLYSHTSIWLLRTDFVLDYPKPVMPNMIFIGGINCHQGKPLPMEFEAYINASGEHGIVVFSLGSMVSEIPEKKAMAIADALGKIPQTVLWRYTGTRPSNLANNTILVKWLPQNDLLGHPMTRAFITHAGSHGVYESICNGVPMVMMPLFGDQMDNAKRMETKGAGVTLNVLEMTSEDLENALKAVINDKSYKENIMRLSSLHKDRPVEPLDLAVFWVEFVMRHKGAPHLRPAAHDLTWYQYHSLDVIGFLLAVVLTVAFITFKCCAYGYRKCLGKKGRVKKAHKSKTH
The data set is described as follows: Drug metabolism assessed as recombinat UGT1A9 (unknown origin) -mediated dextrophan-O-glucuronide formation. Type of data set: ADME.

In data set [3] the target is T3, UDP-glucuronosyltransferase 1A10 (Homo sapiens, UniProt Q9HAW8).
T3 sequence (Q9HAW8 whole entry): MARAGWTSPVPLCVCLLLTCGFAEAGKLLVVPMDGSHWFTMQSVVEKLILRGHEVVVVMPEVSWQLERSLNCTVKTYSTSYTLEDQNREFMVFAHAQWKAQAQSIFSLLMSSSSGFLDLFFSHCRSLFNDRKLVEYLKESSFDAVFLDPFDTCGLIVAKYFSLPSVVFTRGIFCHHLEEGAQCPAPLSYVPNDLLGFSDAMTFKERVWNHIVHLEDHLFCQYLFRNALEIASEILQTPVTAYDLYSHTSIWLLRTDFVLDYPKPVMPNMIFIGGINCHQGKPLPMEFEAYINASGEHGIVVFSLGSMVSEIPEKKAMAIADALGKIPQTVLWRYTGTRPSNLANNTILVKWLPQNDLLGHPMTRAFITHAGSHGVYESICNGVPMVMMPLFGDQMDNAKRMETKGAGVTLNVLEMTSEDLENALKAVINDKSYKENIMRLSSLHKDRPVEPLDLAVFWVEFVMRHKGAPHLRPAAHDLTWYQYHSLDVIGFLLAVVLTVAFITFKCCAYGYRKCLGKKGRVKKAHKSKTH
In words: Drug metabolism assessed as recombinat UGT1A10 (unknown origin) -mediated dextrophan-O-glucuronide formation. Type of data set: ADME.

For data set [4], the system named is Liver microsome. In words: Drug metabolism in human liver microsomes assessed as 3-hydroxymorphinan formation measured as intrinsic unbound clearance. The class given is ADME.
Data set [5] deals with Liver microsome. The data set is described as follows: Drug metabolism in human liver microsomes assessed as dextrophan-O-glucuronide formation measured per mg of microsomal protein. The class given is ADME. In general terms: Liver microsomes are vesicles of endoplasmic reticulum, rich in cytochrome P450 enzymes.
The subject of data set [6] is Liver microsome. In words: Drug metabolism in human liver microsomes assessed as dextrophan-O-glucuronide formation. The class given is ADME.
Data set [7] concerns Liver microsome. The data set is described as follows: Drug metabolism in human liver microsomes assessed as dextrophan-O-glucuronide formation measured as intrinsic clearance. Type of data set: ADME.
In data set [8] the test system is Liver microsome. In words: Drug metabolism in human liver microsomes assessed as dextrophan-O-glucuronide formation measured as intrinsic unbound clearance. The class given is ADME.
Data set [9] relates to Liver microsome. In words: Drug metabolism in human liver microsomes assessed as dextrophan-O-glucuronide formation measured as plasma fraction unbound. Type of data set: ADME, cell-free.
For data set [10], the system named is Liver microsome. In words: Drug metabolism in human liver microsomes assessed as dextrophan-O-glucuronide formation measured as microsomal fraction unbound in presence of 2% BSA. The class given is ADME.

For orientation: Vmax means the top rate of the reaction or transport when substrate is in excess. Usually Km stands for the concentration of substrate that gives half-maximal velocity. In the case of `CN1CC[C@@]23CCCC[C@@H]2[C@@H]1Cc1ccc(O)cc13` [DEXTRORPHAN], the Drug metabolism entry in [1], in [2] and in [3] was “metabolite_not_detected” each time. Further, the CL free came to 0.95 µL/min/mg in the data set with Liver microsome [4] and 2.9 µL/min/mg in the data set with Liver microsome [8]. In the data set with Liver microsome [5], the maximal velocity (Vmax) stood at 2 nmol/min. Further, the Km in the data set on Liver microsome [6] came out at 690 µM. The CLH in the data set on Liver microsome [7] came to 2.9 µL/min/mg. Further, the Fu turned out to be 0.55 in the data set with Liver microsome [9] and 0.88 in the data set on Liver microsome [10].
